Structures can show the parent of a compound that is named as a salt.
Target: T1, ACC1 from rat liver (Rattus norvegicus, UniProt P11497)
T1 construct: The livers (for ACC1 preparation) or skeletal muscle tissue (for ACC2 preparation) are removed; from tissue; host or cells: liver of male CD rats (fasted, then fed a high sucrose diet)
Test: Direct inhibition of ACC1 activity (14C-bicarbonate incorporation)
Format: biochemical
Conditions: ACC1 from rat liver
Protocol: [1] Preparation of ACC1 and ACC2.
Male CD rats weighing 150-200 g are fasted for 2 days and then fed a high sucrose diet (AIN-76A rodent diet; Cat # D10001, Research Diets Inc., New Brunswick, N.J.), for 3 days at which time they are sacrificed by CO2 asphyxiation. The livers (for ACC1 preparation) or skeletal muscle tissue (for ACC2 preparation) are removed, rinsed in ice-cold phosphate-buffered saline (PBS), and homogenized in 5 volumes of homogenization buffer (50 mM potassium phosphate, pH 7.5, 10 mM EDTA, 10 mM 2-mercaptoethanol, 2 mM benzamidine, 0.2 mM phenylmethylsulfonylfluoride (PMSF), 5 mg/L each leupeptin, aprotinin, and antitrypsin) in a Waring® blender for 1 minute at 4° C. All subsequent operations are carried out at 4° C. The homogenate is made 3% with respect to polyethylene glycol (PEG) by the addition of 50% PEG solution and centrifuged at 20,000×g for 15 minutes. The resulting supernatant is adjusted to 5% PEG with the addition of 50% PEG solution and stirred for 5 minutes. The pellet (contains ACC activity) is collected by centrifugation at 20,000×g for 20 minutes, rinsed with Ice-cold doubly distilled water to remove excess PEG and re-suspended in one-fourth the original homogenate volume with homogenization buffer. Ammonium sulfate (200 g/liter) is slowly added with stirring. After 45 minutes the enzyme is collected by centrifugation for 30 minutes at 20,000×g, re-suspended in 10 ml of 50 mM HEPES, pH7.5, 0.1 mM DTT, 1.0 mM EDTA, and 10% glycerol and desalted on a Sephadex™ G-25 column (2.5 cm-x 50 cm) (Pharmacia, Piscataway N.J. now GE Healthcare) […] equilibrated with the same buffer. The desalted enzyme preparation is stored in aliquots at −70° C. Immediately prior to use, frozen ACC1 or ACC2 aliquots are thawed, diluted to 500 μg/ml in buffer containing 50 mM HEPES, pH7.5, 1.0 mM MgCl2, 10 mM tripotassium citrate, 2.0 mM dithiothreitol (DTT), and 0.75 mg/ml fatty acid-free bovine serum albumin (BSA) and pre-incubated at 37° C. for 30 minutes.
[2] Measurement of ACC inhibition. The procedures for measuring ACC1 inhibition and ACC2 inhibition are identical except for the source of the isozyme. For measurement of ACC activity and assessment of ACC inhibition, test compounds are dissolved in dimethylsulfoxide (DMSO) and 1 μL aliquots are placed in 0.5 ml polypropylene tubes. Control tubes contain 1 μL of DMSO alone. Tubes are incubated at 37° C. in a constant temperature water bath. […] The reaction is then initiated by the addition of 10 μL of preincubated ACC fraction prepared as described above. After 7 minutes the reaction is terminated by the addition of 50 μL of 6N HCl and a 150 μL aliquot of the reaction mixture is transferred to glass scintillation vials and evaporated to dryness at 90° C. for at least 1 hour. The dried vials are then cooled, 0.5 ml of water and 5.5 ml of Ready Safe liquid scintillation fluid (Beckman Coulter Inc., Fullerton, Calif.) are added, and the radioactivity is determined using a liquid scintillation counter. Tubes that received HCl before ACC served as blanks.

| SMILES | IC50 [nM] |
| --- | --- |
| Cc1cc(C(=O)N2CCC3(CC2)CC(=O)c2cc(C(=O)O)ccc2O3)cc2cn[nH]c12 [Ex. A33, 1′-[(7-methyl-1H-indazol-5-yl)carbonyl]-4-oxo-3,4-dihydrospiro[chromene-2,4′-piperidine]-6-carboxylic acid trifluoroacetic acid salt] | 303 |
| Cc1cc(C(=O)N2CCC3(CC2)CC(=O)c2ccc(-c4ccccc4)cc2O3)cc2cn[nH]c12 [Ex. A34, 1′-[(7-methyl-1H-indazol-5-yl)carbonyl]-7-phenylspiro[chromene-2,4′-piperidin]-4(3H)-one] | 395 |
| Cc1cc(C(=O)N2CCC3(CC2)CC(=O)c2cc(S(C)(=O)=O)ccc2O3)cc2cn[nH]c12 [Ex. A35, 1′-[(7-methyl-1H-indazol-5-yl)carbonyl]-6-(methylsulfonyl)spiro[chromene-2,4′-piperidin]-4(3H)-one] | 1110 |
| Cc1cc2c(cc1C)C(=O)CC1(CCN(C(=O)c3cc(Cl)c4[nH]ncc4c3)CC1)O2 [Ex. B1, 1′-[(7-chloro-1H-indazol-5-yl)carbonyl]-6,7-dimethylspiro[chromene-2,4′-piperidin]-4(3H)-one] | 24.1 |
| COc1ccc2c(c1)OC1(CCN(C(=O)c3cc(Cl)c4[nH]ncc4c3)CC1)CC2=O [Ex. B7, 1′-[(7-chloro-1H-indazol-5-yl)carbonyl]-7-methoxyspiro[chromene-2,4′-piperidin]-4(3H)-one] | 166 |
| O=C1CC2(CCN(C(=O)c3cc(Cl)c4[nH]ncc4c3)CC2)Oc2cc(Cl)c(F)cc21 [Ex. B10, 7-chloro-1′-[(7-chloro-1H-indazol-5-yl)carbonyl]-6-fluorospiro[chromene-2,4′-piperidin]-4(3H)-one] | 209 |
| COc1ccc2c(c1F)C(=O)CC1(CCN(C(=O)c3cc(Cl)c4[nH]ncc4c3)CC1)O2 [Ex. B11] | 217 |
| O=C1CC2(CCN(C(=O)c3cc(Cl)c4[nH]ncc4c3)CC2)Oc2ccc(C(F)(F)F)cc21 [Ex. B12, 1′-[(7-chloro-1H-indazol-5-yl)carbonyl]-6-(trifluoromethyl)spiro[chromene-2,4′-piperidin]-4(3H)-one] | 257 |
| N#Cc1ccc2c(c1)C(=O)CC1(CCN(C(=O)c3cc(Cl)c4[nH]ncc4c3)CC1)O2 [Ex. B14, 1′-[(7-chloro-1H-indazol-5-yl)carbonyl]-4-oxo-3,4-dihydrospiro[chromene-2,4-piperidine]carbonitrile] | 331 |
| CCc1cc(C(=O)N2CCC3(CC2)CC(=O)c2cc(C)c(C)cc2O3)cc2cn[nH]c12 [Ex. C1, 1′-[(7-ethyl-1H-indazol-5-yl)carbonyl]-6,7-dimethylspiro[chromene-2,4′-piperidin]-4(3H)-one] | 17.5 |
| CCc1cc(C(=O)N2CCC3(CC2)CC(=O)c2cc(OC)ccc2O3)cc2cn[nH]c12 [Ex. C2, 1′-[(7-ethyl-1H-indazol-5-yl)carbonyl]-6-methoxyspiro[chromene-2,4′-piperidin]-4(3H)-one] | 22.6 |
| CCc1cc(C(=O)N2CCC3(CC2)CC(=O)c2c(OC)cc(C)cc2O3)cc2cn[nH]c12 [Ex. C3, 1′-[(7-ethyl-1H-indazol-5-yl)carbonyl]-5-methoxy-7-methylspiro[chromene-2,4′-piperidin]-4(3H)-one] | 29.5 |
| CCc1cc(C(=O)N2CCC3(CC2)CC(=O)c2cc(Cl)c(C)cc2O3)cc2cn[nH]c12 [Ex. C4, 6-chloro-1′-[(7-ethyl-1H-indazol-5-yl)carbonyl]-7-methylspiro[chromene-2,4′-piperidin]-4(3H)-one] | 30.6 |
| CCc1cc(C(=O)N2CCC3(CC2)CC(=O)c2cc(C(=O)OC)ccc2O3)cc2cn[nH]c12 [Ex. C5, methyl 1′-[(7-ethyl-1H-indazol-5-yl)carbonyl]-4-oxo-3,4-dihydrospiro[chromene-2,4′-piperidine]-6-carboxylate] | 49.5 |
| Cc1cc2c(cc1C)C(=O)CC1(CCN(C(=O)c3ccc4c(cnn4C)c3)CC1)O2 [Ex. D1, 6,7-dimethyl-1′-[(1-methyl-1H-indazol-5-yl)carbonyl]spiro[chromene-2,4′-piperidin]-4(3H)-one] | 57.9 |
| COc1ccc2c(c1)C(=O)CC1(CCN(C(=O)c3ccc4c(cnn4C)c3)CC1)O2 [Ex. D2, 6-methoxy-1′-[(1-methyl-1H-indazol-5-yl)carbonyl]spiro[chromene-2,4′-piperidin]-4(3H)-one] | 216 |
| Cc1cc2c(cc1Cl)C(=O)CC1(CCN(C(=O)c3ccc4c(cnn4C)c3)CC1)O2 [Ex. D3, 6-chloro-7-methyl-1′-[(1-methyl-1H-indazol-5-yl)carbonyl]spiro[chromene-2,4′-piperidin]-4(3H)-one] | 250 |

Now from value to molecule:

| IC50 [nM] | SMILES |
| --- | --- |
| 9.8 | Cc1cc2c(cc1C)C(=O)CC1(CCN(C(=O)c3cc(C)c4[nH]nc(C)c4c3)CC1)O2 [Ex. E3, 1′-[(3,7-dimethyl-1H-indazol-5-yl)carbonyl]-6,7-dimethylspiro[chromene-2,4′-piperidin]-4(3H)-one] |
| 54.3 | COC(=O)c1ccc2c(c1)C(=O)CC1(CCN(C(=O)c3cc(C)c4[nH]nc(C)c4c3)CC1)O2 [Ex. E4, methyl 1′-[(3,7-dimethyl-1H-indazol-5-yl)carbonyl]-4-oxo-3,4-dihydrospiro[chromene-2,4′-piperidine]-6-carboxylate] |
| 35.7 | Cc1cc2c(cc1C)C(=O)CC1(CCN(C(=O)c3ccc4c(C)n[nH]c4c3)CC1)O2 [Ex. F1, 6,7-dimethyl-1′-[(3-methyl-1H-indazol-6-yl)carbonyl]spiro[chromene-2,4′-piperidin]-4(3H)-one] |
| 49.2 | COc1ccc2c(c1)C(=O)CC1(CCN(C(=O)c3ccc4c(C)n[nH]c4c3)CC1)O2 [Ex. F2, 6-methoxy-1′-[(3-methyl-1H-indazol-yl)carbonyl]spiro[chromene-2,4′-piperidin]-4(3H)-one] |
| 107 | Cc1cc2c(cc1Cl)C(=O)CC1(CCN(C(=O)c3ccc4c(C)n[nH]c4c3)CC1)O2 [Ex. F3, 6-chloro-7-methyl-1′-[(3-methyl-1H-indazol-6-yl)carbonyl]spiro[chromene-2,4′-piperidin]-4(3H)-one] |
| 126 | COC(=O)c1ccc2c(c1)C(=O)CC1(CCN(C(=O)c3ccc4c(C)n[nH]c4c3)CC1)O2 [Ex. F4, methyl 1′-[(3-methyl-1H-indazol-6-yl)carbonyl]-4-oxo-3,4-dihydrospiro[chromene-2,4′-piperidine]-6-carboxylate] |
| 586 | Cc1n[nH]c2cc(C(=O)N3CCC4(CC3)CC(=O)c3cc(C(=O)O)ccc3O4)ccc12 [Ex. F5, 1′-[(3-methyl-1H-indazol-6-yl)carbonyl]-4-oxo-3,4-dihydrospiro[chromene-2,4′-piperidine]-6-carboxylic acid trifluoroacetic acid salt] |
| 271 | Cc1cc2c(cc1C)C(=O)CC1(CCN(C(=O)c3ccc4cn[nH]c4c3)CC1)O2 [Ex. G1, 1-(1H-indazol-6-ylcarbonyl)-6,7-dimethylspiro[chromene-2,4′-piperidin]-4(3H)-one trifluoroacetic acid salt] |
| 167 | Cc1cc2c(cc1C)C(=O)CC1(CCN(C(=O)c3ccc4cnn(C)c4c3)CC1)O2 [Ex. G2, 6,7-dimethyl-1′-[(1-methyl-1H-indazol-6-yl)carbonyl]spiro[chromene-2,4′-piperidin]-4(3H)-one] |
| 75.4 | Cc1cc2c(cc1C)C(=O)CC1(CCN(C(=O)c3ccc4c(C)nn(C)c4c3)CC1)O2 [Ex. G3, 1′-[(1,3-dimethyl-1H-indazol-6-yl)carbonyl]-6,7-dimethylspiro[chromene-2,4′-piperidin]-4(3H)-one] |
